In US11524935B2, “Methods for treating attention-deficit/hyperactivity disorder” (priority 2009, dated 2022):
“Also recorded” adds a separate entry of the source. Where a name gives a salt, the structure may show the parent alone.

How the values were obtained:
wild-type mice = test: spontaneous activity in the open field, wild-type mice; format: in vivo, mouse; conditions: 2 mg/kg SC, relative to vehicle controls
Protocol: Male and female wild-type and homozygous mutant dopamine transporter KO mice (n−10 mice/genotype/agent) were tested for spontaneous activity in the open field following a single injection of the vehicle or compound. Mice were placed into the open field for 30 min and administered SC the vehicle (sterile water) 2 mg/kg amphetamine, or three concentrations of the test compound (10, 30, 100 mg/kg). All drugs, were given in a volume of 5 mL/kg. Animals were returned to the open field for an additional 90 min. Spontaneous activity was evaluated in an automated Omnitech Digiscan apparatus (Accuscan Instruments, Columbus, Ohio). Activity was summated at 5 min intervals over the 2 h period of testing. Horizontal activity or locomotion was Measured in terms of toe total distance covered in cm, vertical activity or rearing was expressed in terms of the total numbers of vertical beam breaks, and stereotypy was quantified in terms of repetitive breaks of a given beam or beams with intervals of less than 1 sec. For the analyses, 10 WT and 10 KO mice were run in each of the treatment groups with approximately equal numbers of males and females assigned to each group. Data were analyzed by the Statistical Package for Social Sciences programs (version 11.0 for Windows; SPSS Science, Chicago, Ill.). The results lot each dependent variable were analyzed by repeated analyses of variance. […]

Long-Evans rats = test: reversal of a visual discrimination (operant, Phase II reversal training); format: in vivo, rat
Protocol: Forty adult male Long-Evans rats (Charles River Laboratories, Wilmington, Mass.) approximately 250 g at the start of training were used as subjects in this study. Each shipment of rats went through five-day isolation prior to introduction to the general population. Rats were allowed a minimum of one additional week acclimation before operant training began.
Test compound was dissolved in sterile 0.9% saline at 3.0, 10.0, and 30.0 mg/mL, D-amphetamine, the reference compound, was also dissolved in 0.9% sterile saline at 1.0 mg/mL of the amphetamine salt.
After operant training began, rats were housed individually. Access to food was restricted to 12-20 grams per day to maintain animals at 85-90% free feeding body weight (relative to non-restricted rats). Rats were never deprived of water and continued gain weight while in the study.
After animals reached the training criteria on Phase I of the study, they were designated to one of the treatment groups; groups were matched for performance (days to criterion per in Phase I. The study was a mixed design (dose levels×repeated training sessions). The five dose levels were 1, 3, and 10 mg/kg test compound, 0.9 percent saline (vehicle) and 1.0 mg/kg d-amphetamine sulfate (reference compound) all delivered intraperitoneal (IP) at 1.0 mL/kg.
Animals were trained in a set of 10 operant testing chambers (Med Associates) containing two retractable response levers on the front wall. There were two stimulus lights in the chamber, one situated over each lever. The food magazine is located between the two response levers on the front wall and food delivery is signaled with a magazine light. Retrieval of the food pellet is detected by a photosensor within the food magazine. Dim illumination of the chamber is provided by a houselight over the center of the front wall.
Initially animals were shaped to press a lever for food. During this phase, both levers were extended into the chamber and the animal was rewarded with a 45 mg pellet for pressing a lever. The use of a side bias is prevented by retracting a lever once it exceeds five presses beyond the number of presses on the opposite lever. After […] consecutive days with 100 lever presses subjects were moved to Phase I of the study. In this phase, animals had to learn to press the lever beneath the illuminated signal light. On each trial, one of the signal lights (randomly chosen) was illuminated for 1.0 sec prior to presentation of the levers (30.0 sec limited hold). […] After either a correct or incorrect press, or an omission, the levers were retracted for the duration of the variable inter-trial-interval (ITT; 5 s+/−2 s). After stable responding (two consecutive days better than 80% correct) was established in this phase, animals began training in the drug administration portion of the experiment (Phase II).
In Phase II, animals were divided into five groups matched on percent accuracy and number of trials to criterion. Animals in each group were dosed with one of three doses of test compound ([…], IP), amphetamine (1.0 mg/kg, IP), or with the vehicle (saline) one hour prior to behavioral training. In Phase II the discrimination was reversed from that of Phase I such that animals were now rewarded for pressing the lever distal to the cue light. Animals were dosed daily approximately 60 min prior to training. Training continued until ad animals achieved two consecutive days above 80% correct on the new discrimination.
Data were analyzed using SPSS 12.0 for Windows (SSPS Inc., Chicago, Ill.). A mixed between groups, repeated measures ANOVA was conducted cm response accuracy data. A simple one-way ANOVA was conducted on the trials to criteria data from Phase II.

[1] = tested on: homozygous mutant dopamine transporter KO mice; test: spontaneous activity in the open field, dopamine transporter KO mice; format: in vivo, mouse
Protocol: Male and female wild-type and homozygous mutant dopamine transporter KO mice (n−10 mice/genotype/agent) were tested for spontaneous activity in the open field following a single injection of the vehicle or compound. […] All drugs, were given in a volume of 5 mL/kg. Animals were returned to the open field for an additional 90 min. Spontaneous activity was evaluated in an automated Omnitech Digiscan apparatus (Accuscan Instruments, Columbus, Ohio). Activity was summated at 5 min intervals over the 2 h period of testing. Horizontal activity or locomotion was Measured in terms of toe total distance covered in cm, vertical activity or rearing was expressed in terms of the total numbers of vertical beam breaks, and stereotypy was quantified in terms of repetitive breaks of a given beam or beams with intervals of less than 1 sec. For the analyses, 10 WT and 10 KO mice were run in each of the treatment groups with approximately equal numbers of males and females assigned to each group. Data were analyzed by the Statistical Package for Social Sciences programs (version 11.0 for Windows; SPSS Science, Chicago, Ill.). The results lot each dependent variable were analyzed by repeated analyses of variance. (RMANOVA) for within subjects effects (group differences over time) and between-subjects effects (tests of main effects and interactions). Bonferroni corrected pair-wise comparisons were used as the post-hoc tests. A p<0.05 was considered significant.

[2] = molecular target: T1, human serotonin transporter (Homo sapiens, UniProt P31645); test: inhibition of [125I]RTI-55 binding to hSERT in HEK293 cell membranes; conditions: HEK-hSERT cells
T1 construct: expressed in transfected cells; host or cells: HEK293
T1 sequence (P31645 whole entry): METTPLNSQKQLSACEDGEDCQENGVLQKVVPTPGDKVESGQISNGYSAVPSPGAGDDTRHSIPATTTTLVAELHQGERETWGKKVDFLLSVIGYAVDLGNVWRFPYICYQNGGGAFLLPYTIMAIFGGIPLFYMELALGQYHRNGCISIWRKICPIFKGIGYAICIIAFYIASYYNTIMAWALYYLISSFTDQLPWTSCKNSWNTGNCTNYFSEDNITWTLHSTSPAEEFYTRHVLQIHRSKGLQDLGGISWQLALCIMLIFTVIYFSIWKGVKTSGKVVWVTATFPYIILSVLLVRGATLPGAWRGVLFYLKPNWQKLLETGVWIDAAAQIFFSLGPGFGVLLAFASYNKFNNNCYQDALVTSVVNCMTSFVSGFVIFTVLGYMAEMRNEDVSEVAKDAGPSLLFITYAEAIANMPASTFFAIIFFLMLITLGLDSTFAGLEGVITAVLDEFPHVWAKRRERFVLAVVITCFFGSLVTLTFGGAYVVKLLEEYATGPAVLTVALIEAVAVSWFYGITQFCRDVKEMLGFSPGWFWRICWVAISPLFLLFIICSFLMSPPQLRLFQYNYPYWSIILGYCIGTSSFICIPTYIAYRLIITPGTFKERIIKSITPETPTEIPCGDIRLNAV

[3] = tested on: extracellular monoaminergic transmitter levels; test: in vivo brain microdialysis in prefrontal cortical and striatal brain areas of freely-moving rats; parameters: species or system rat
Protocol: Brain dialysates were collected from male Sprague-Dawey rats, which had been chronically implanted with cortical and striatal microdialysis guide cannulae and probes. The effects of different doses of test compound (10 and 30 mg/kg, administered subcutaneously) or vehicle (saline, 0.9% NaCl) were evaluated in three 50 baseline samples and eight consecutive 50 minute post-administration samples. The levels of dopamine, norepinephrine and serotonin for the two different brain areas were analyzed using HPLC/PCD analysis to determine any effects of the compound.
In FIGS. 4 and 5, results are expressed as the average percentage change compared to the individual's average baseline value. The arrow indicates the time of administration of test compound. The average value (and corresponding S.E.M.) are shown for each 50 minute sample period of n=12 rats for each group (NB: individual data points may be based on fewer samples owing to incidental loss of dialysate samples).

[4] = molecular target: T2, human norepinephrine transporter (Homo sapiens, UniProt P23975); format: binding; conditions: HEK-hNET cells
T2 construct: expressed in transfected cells; host or cells: HEK293
T2 sequence (P23975 whole entry): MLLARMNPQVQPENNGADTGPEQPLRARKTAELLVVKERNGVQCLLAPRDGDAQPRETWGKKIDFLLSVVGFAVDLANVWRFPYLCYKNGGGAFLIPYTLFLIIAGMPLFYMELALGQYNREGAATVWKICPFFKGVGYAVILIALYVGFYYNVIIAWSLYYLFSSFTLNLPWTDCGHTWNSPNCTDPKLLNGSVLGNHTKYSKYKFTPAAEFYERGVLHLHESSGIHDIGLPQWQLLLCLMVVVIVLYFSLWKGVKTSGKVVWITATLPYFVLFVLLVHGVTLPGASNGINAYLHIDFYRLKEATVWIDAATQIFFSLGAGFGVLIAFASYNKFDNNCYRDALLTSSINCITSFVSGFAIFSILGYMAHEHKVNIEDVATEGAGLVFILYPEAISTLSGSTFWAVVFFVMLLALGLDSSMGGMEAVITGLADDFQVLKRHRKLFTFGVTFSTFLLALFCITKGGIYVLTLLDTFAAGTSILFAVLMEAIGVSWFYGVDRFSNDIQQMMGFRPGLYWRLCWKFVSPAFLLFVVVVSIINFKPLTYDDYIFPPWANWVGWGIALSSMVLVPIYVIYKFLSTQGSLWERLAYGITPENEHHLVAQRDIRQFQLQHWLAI

[5] = molecular target: T3, human dopamine transporter (Homo sapiens, UniProt Q01959); test: inhibition of [125I]RTI-55 binding to hDAT in HEK293 cell membranes; conditions: HEK-hDAT cells
T3 construct: expressed in transfected cells; host or cells: HEK293
T3 sequence (Q01959 whole entry): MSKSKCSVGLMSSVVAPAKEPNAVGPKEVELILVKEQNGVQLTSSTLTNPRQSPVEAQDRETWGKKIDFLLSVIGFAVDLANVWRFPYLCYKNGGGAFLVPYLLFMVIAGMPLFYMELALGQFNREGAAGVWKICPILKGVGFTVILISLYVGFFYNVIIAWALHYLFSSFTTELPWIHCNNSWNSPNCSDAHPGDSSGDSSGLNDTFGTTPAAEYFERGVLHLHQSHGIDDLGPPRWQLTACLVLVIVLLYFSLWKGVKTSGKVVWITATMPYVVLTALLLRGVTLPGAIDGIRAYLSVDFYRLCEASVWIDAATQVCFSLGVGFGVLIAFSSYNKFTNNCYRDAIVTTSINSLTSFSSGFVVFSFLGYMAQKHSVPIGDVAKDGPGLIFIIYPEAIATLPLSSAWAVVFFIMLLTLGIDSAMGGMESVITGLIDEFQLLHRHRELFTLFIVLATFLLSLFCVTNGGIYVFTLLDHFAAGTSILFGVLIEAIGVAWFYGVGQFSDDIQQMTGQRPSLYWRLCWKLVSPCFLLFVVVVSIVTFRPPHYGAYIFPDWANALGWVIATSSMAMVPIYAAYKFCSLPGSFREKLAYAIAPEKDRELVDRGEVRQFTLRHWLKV

[6] = 1.0 mg/kg IP daily (d-amphetamine sulfate), vs vehicle

| SMILES | locomotor, rearing and stereotypical activities (wild-type mice) | number of sessions (trials) required to reach criteria in Phase II (Long-Evans rats; [6]) | percent accuracy during Phase II reversal training (Long-Evans rats; [6]) | locomotor, rearing and stereotypical activities ([1]; 2 mg/kg SC, relative to vehicle controls) | Hill coefficient [2] | extracellular neurotransmitter levels (dopamine, norepinephrine, serotonin) ([3]; 10 mg/kg s.c., striatum and prefrontal cortex) | extracellular dopamine concentrations in the striatum ([3]; 30 mg/kg s.c.) | extracellular norepinephrine concentrations in the prefrontal cortex ([3]; 30 mg/kg s.c.) | other transmitters investigated (extracellular levels) ([3]; 30 mg/kg s.c.) | Hill coefficient [4] | percent accuracy during Phase II reversal training (Long-Evans rats; 3.0 mg/kg IP daily, one hour prior to training, vs vehicle) | number of sessions (trials) required to reach criteria in Phase II (Long-Evans rats; 3.0 mg/kg IP daily, vs vehicle) | percent accuracy during Phase II reversal training (Long-Evans rats; 10.0 mg/kg IP daily, one hour prior to training) | number of sessions (trials) required to reach criteria in Phase II (Long-Evans rats; 10.0 mg/kg IP daily, vs vehicle) | percent accuracy during Phase II reversal training (Long-Evans rats; 30.0 mg/kg IP daily, one hour prior to training, vs vehicle) | number of sessions (trials) required to reach criteria in Phase II (Long-Evans rats; 30.0 mg/kg IP daily, vs vehicle) | locomotor, rearing and stereotypical activities ([1]; 100 mg/kg SC, compared with 2 mg/kg amphetamine) | locomotor, rearing and stereotypical activities ([1]; 10, 30, 100 mg/kg SC single injection, 90 min post-injection) | Hill coefficient [5] |
| --- | --- | --- | --- | --- | --- | --- | --- | --- | --- | --- | --- | --- | --- | --- | --- | --- | --- | --- | --- |
| C[C@H](N)Cc1ccccc1 [amphetamine, d-amphetamine sulfate, reference compound] | increased locomotor, rearing and stereotypical activities | needed fewer trials to reach criterion levels of performance | better accuracy scores | decreased them in KO animals | – | – | – | – | – | – | – | – | – | – | – | – | – | – | – |
| NC(=O)OC[C@H](N)Cc1ccccc1 [Test Compound, O-carbamoyl-(D)-phenylalaninol] | – | – | – | – | −2.28 ± 0.05 | no consistent effect | increases | increases | without having any significant affect | −1.45 ± 0.34 | better accuracy scores | needed fewer trials to reach criterion levels of performance | lower than the 3.0, and 30.0 dose of test compound | did not differ from the vehicle group | better accuracy scores | needed fewer trials to reach criterion levels of performance | suppressed activities more efficiently than amphetamine | selectively reduced activity of the KO mice in a dose-dependent manner; also recorded: reduced activities in a dose-dependent fashion | −0.77 ± 0.12 |
